Measured values taken from patent US20080255127A1, “Pesticide Formulations with a Crystallization Risk, and a Method for Their Preparation” (priority 2005, published 2008).

Key:
[1] = Crystallization test of EW formulations Dn (25-μm metal filter); format: physicochemical; design: key to Crystallization: −: A minus sign indicates the absence of crystals; +: a plus sign indicates their presence; conditions: 5.0% pesticide in formulation Dn; for Crystallization: 2% of the formulation in 98 ml of water, 1° C. for 24 h, 25-μm metal filter
Procedure: In the crystallization test, an emulsion consisting of 2% of the formulation in 98 ml of water was kept at 1° C. for 24 h and was then passed through a 25-μm metal filter. A minus sign indicates the absence of crystals, while a plus sign indicates their presence. […] The worst emulsion, which however was still acceptable, scored +, a good emulsion scored ++ and the best ones scored +++. Both the phase separation and the time of its occurrence were observed when evaluating the emulsion. […] A single + sign means that some oil did separate out after 2 hours.

[2] = Risk of crystallization of pesticides in ECs and EWs; format: physicochemical; conditions: conventional recipes; EW with less than 10% of water
From the text: This is what happened in the case of both EP655197 and EP453899, where the compositions for which the disclosed anticrystallization agents (N,N-dialkylamides) cover the whole range of triazoles with a fungicidal action, without giving examples of all of the compositions in which it is appropriate to use N,N-dimethylalkylamides. […] Propioconazole is an example.
The inventors have established that it is not the similarly of the chemical structure that puts the pesticide “at risk” of crystallization in ECs and EWs, but instead it is much more sensible to evaluate certain experimental parameters (or parameters that are calculated semi-empirically) in order to predict the risk of crystallization. In numerous tests, the inventors have found some pesticides with a risk of crystallization and others without. This risk refers in concrete terms to what happens when 5 ml of the EC or EW is diluted with 95 ml of water and kept in a refrigerator (at 1° C.), after which the emulsion is passed through a 5-μm filter 7 days later.

Row | Compound | Crystallization [1] | further results
1 | O=C(O)COc1ccc(Cl)cc1Cl [2,4-D] | − | 
2 | Cc1cc(Cl)ccc1OCC(=O)O [MCPA] | − | 
3 | CCNc1nc(Cl)nc(NC(C)C)n1 [atrazine] | − | 
4 | COP(=S)(OC)SCn1nnc2ccccc2c1=O [azinphos-methyl] | − | 
5 | O=c1oc2ccccc2c(O)c1C(CC(O)c1ccc(-c2ccc(Br)cc2)cc1)c1ccccc1 (centres unmarked) [bromadiolone] | − | 
6 | Clc1ccc(C2(Cn3cncn3)CC(Br)CO2)c(Cl)c1 (centres unmarked) [bromuconazole] | − | 
7 | C=CCOC(=O)C(C)(C)OC(=O)c1cc(-n2c(=O)cc(C(F)(F)F)n(C)c2=O)ccc1Cl [butafenacil] | − | 
8 | Cc1ccc(NC(=O)N(C)C)cc1Cl [chlorotoluron] | − | 
9 | O=c1oc2ccccc2c(O)c1C1CCCc2ccccc21 (centres unmarked) [coumatetralyl] | + | 
10 | O=C(O)C1(C(=O)Nc2ccc(Cl)cc2Cl)CC1 [cyclanilide] | − | 
11 | CC(C1CC1)C(O)(Cn1cncn1)c1ccc(Cl)cc1 (centres unmarked) [cyproconazole] | − | 
12 | CC1COC(Cn2cncn2)(c2ccc(Oc3ccc(Cl)cc3)cc2Cl)O1 (centres unmarked) [difenconazole] | − | 
13 | COc1ccc(C(=CC(=O)N2CCOCC2)c2ccc(Cl)cc2)cc1OC [dimethomorph] | − | 
14 | CN(C)C(=O)Nc1ccc(Cl)c(Cl)c1 [diuron] | − | 
15 | CCOc1ccccc1OS(=O)(=O)NC(=O)Nc1nc(OC)cc(OC)n1 [ethoxysulfuron] | − | 
16 | CC1(C(=O)Nc2ccc(O)c(Cl)c2Cl)CCCCC1 [fenhexamid] | − | 
17 | C/C(=N/Nc1nc(C)cc(C)n1)c1ccccc1C [ferimzone] | − | 
18 | C[Si](Cn1cncn1)(c1ccc(F)cc1)c1ccc(F)cc1 [flusilazole] | − | 
19 | CS(=O)(=O)NC(=O)c1cc(Oc2ccc(C(F)(F)F)cc2Cl)ccc1[N+](=O)[O-] [fomesafen] | − | 
20 | c1coc(-c2nc3ccccc3[nH]2)c1 [fuberidazole] | − | 
21 | COC(=O)C(C)N(C(=O)c1ccco1)c1c(C)cccc1C (centres unmarked) [furalaxyl] | − | 

Row | Compound | Crystallization [1] | further results
22 | CC(C)(C)N(NC(=O)c1ccc(Cl)cc1)C(=O)c1ccccc1 [halofenozide] | − | 
23 | C=CCOC(Cn1ccnc1)c1ccc(Cl)cc1Cl (centres unmarked) [imazalil] | − | 
24 | CCC1(CC2(c3cccc(Cl)c3)CO2)C(=O)c2ccccc2C1=O (centres unmarked) [indanofan] | − | 
25 | Cc1ccc(C(C)NC(=O)[C@@H](NC(=O)OC(C)C)C(C)C)cc1 (some centres unmarked) [iprovalicarb] | − | 
26 | CC(C)c1ccc(NC(=O)N(C)C)cc1 [isoproturon] | − | 
27 | CON(C)C(=O)Nc1ccc(Cl)c(Cl)c1 [linuron] | − | 
28 | CCOC(=O)C1=NN(c2ccc(Cl)cc2Cl)C(C)(C(=O)OCC)C1 (centres unmarked) [mefenpyr-diethyl] | − | 
29 | CC1(C)CCC(Cc2ccc(Cl)cc2)C1(O)Cn1cncn1 (centres unmarked) [metconazole] | − | 
30 | CNC(=O)Oc1cc(C)c(SC)c(C)c1 [methiocarb] | − | 
31 | OC(c1ccc(F)cc1)(c1cncnc1)c1ccccc1Cl (centres unmarked) [nuarimol] | − | 
32 | CC(C)(C)C(O)C(Cc1ccc(Cl)cc1)n1cncn1 (centres unmarked) [paclobutrazole] | − | 
33 | CCC(=O)Nc1ccc(Cl)c(Cl)c1 [propanil] | − | 
34 | OC(Cc1ccccc1Cl)(Cn1nc[nH]c1=S)C1(Cl)CC1 (centres unmarked) [prothioconazole] | − | 
35 | CCOP(=S)(OCC)Oc1ccc(=O)n(-c2ccccc2)n1 [pyridaphenthion] | − | 
36 | CC1CCCCC1NC(=O)Nc1ccccc1 (centres unmarked) [siduron] | + | Crystallization problems (in words) [1]: had crystallization problems
37 | CCNc1nc(NCC)nc(SC)n1 [simetryn] | − | 
38 | CC(C)(C)C(O)(CCc1ccc(Cl)cc1)Cn1cncn1 (centres unmarked) [tebuconazole] | − | 
39 | CC(C)(C)C(=O)C(Oc1ccc(Cl)cc1)n1cncn1 (centres unmarked) [triadimefon] | − | 
40 | CC(C)(C)C(O)C(Oc1ccc(Cl)cc1)n1cncn1 (centres unmarked) [triadimenol] | − | 
41 | CCOC(=O)CSc1nc(C(C)(C)C)nn1C(=O)N(C)C [triazamate] | + | Crystallization problems (in words) [1]: had crystallization problems
42 | Propioconazole |  | Crystallization problems in an emulsifiable concentrate (EC) or emulsion in water (EW) [2]: free of crystallization problems
